# Measurements: ChEMBL document CHEMBL4118195, “Synthesis and profiling of benzylmorpholine 1,2,4,5-tetraoxane analogue N205: Towards tetraoxane scaffolds with potential for single dose cure of malaria” (Bioorg Med Chem, 2018)
# Key:
# [1] = Retention time of the compound; type: physicochemical
# [2] = Tmax in humanized NOD.Cg-Prkdcscid Il2rgtm1Wjl/SzJ mouse infected with Plasmodium falciparum Pf3D70087/N9 at 100 mg/kg, po administered as single dose by LC-MS/MS analysis; type: ADME, organism-based; settings: in vivo
# [3] = Drug metabolism in mouse liver microsomes assessed as bis-oxygenation and dehydrogenation metabolite formation at 5 uM after 60 mins by UPLC-MS analysis; type: ADME, microsome; settings: 1 h
# [4] = Intrinsic clearance in mouse liver microsomes assessed per mg protein at 5 uM by UPLC-MS analysis; type: ADME, microsome; settings: read-out: CLH
# [5] = Drug metabolism in rat liver microsomes assessed as metabolite M+32 (IV) formation at 5 uM after 60 mins by UPLC-MS analysis; type: ADME, microsome; settings: 1 h
# [6] = Tmax in humanized NOD.Cg-Prkdcscid Il2rgtm1Wjl/SzJ mouse infected with Plasmodium falciparum Pf3D70087/N9 at 5 mg/kg, po administered as single dose by LC-MS/MS analysis; type: ADME, organism-based; settings: in vivo
# [7] = Drug metabolism in mouse liver microsomes assessed as ring dehydrogenated metabolite formation at 5 uM after 60 mins by UPLC-MS analysis; type: ADME, microsome; settings: 1 h
# [8] = Drug metabolism in rat liver microsomes assessed as bis-oxygenation and dehydrogenation metabolite formation at 5 uM after 60 mins by UPLC-MS analysis; type: ADME, microsome; settings: 1 h
# [9] = AUC (0 to t) in humanized NOD.Cg-Prkdcscid Il2rgtm1Wjl/SzJ mouse infected with Plasmodium falciparum Pf3D70087/N9 at 15 mg/kg, po administered as single dose by LC-MS/MS analysis; type: ADME, organism-based; settings: in vivo
# [10] = Drug degradation in human liver microsomes assessed as compound half life at 5 uM by UPLC-MS method; type: ADME, microsome
# Mus musculus [11] = test: Dose normalized AUC (0 to t) in humanized NOD.Cg-Prkdcscid Il2rgtm1Wjl/SzJ mouse infected with Plasmodium falciparum Pf3D70087/N9 at 50 mg/kg, po administered as single dose by LC-MS/MS analysis; type: ADME, organism-based; settings: in vivo
# [12] = Drug metabolism in human liver microsomes assessed as ring dehydrogenated metabolite formation at 5 uM after 60 mins by UPLC-MS analysis; type: ADME, microsome; settings: 1 h
# Mus musculus [13] = test: Dose normalized Cmax in humanized NOD.Cg-Prkdcscid Il2rgtm1Wjl/SzJ mouse infected with Plasmodium falciparum Pf3D70087/N9 at 15 mg/kg, po administered as single dose after 0.25 to 23 hrs by LC-MS/MS analysis; type: ADME, organism-based; settings: in vivo
# Mus musculus [14] = test: Dose normalized AUC (0 to t) in humanized NOD.Cg-Prkdcscid Il2rgtm1Wjl/SzJ mouse infected with Plasmodium falciparum Pf3D70087/N9 at 15 mg/kg, po administered as single dose by LC-MS/MS analysis; type: ADME, organism-based; settings: in vivo
# [15] = Drug degradation in rat liver microsomes assessed as compound half life at 1 uM by UPLC-MS method; type: ADME, microsome
# [16] = Drug metabolism in human liver microsomes assessed as metabolite M+32 (II) formation at 5 uM after 60 mins by UPLC-MS analysis; type: ADME, microsome; settings: 1 h
# Cytochrome P450 2C19 = Cytochrome P450 2C19 (Homo sapiens, UniProt P33261); test: Inhibition of CYP2C19 in human liver microsomes assessed as (S)-mephenytoin 4'-hydroxylation after 4 to 40 mins in presence of NADPH by LCMS analysis; type: ADME
# [17] = Oral bioavailability in Sprague-Dawley rat at 100 mg/kg administered via gavage by LC/MS analysis; type: ADME, organism-based; settings: in vivo
# [18] = Drug metabolism in human liver microsomes assessed as mono-oxygenation and dehydrogenation metabolite formation at 5 uM after 60 mins by UPLC-MS analysis; type: ADME, microsome; settings: 1 h
# Plasmodium berghei = test: Antimalarial activity against Plasmodium berghei infected in mouse assessed as mouse mean survival days at 30 mg/kg, po administered as single dose; type: functional
# [19] = Drug metabolism in mouse liver microsomes assessed as metabolite M+32 (V) formation at 5 uM after 60 mins by UPLC-MS analysis; type: ADME, microsome; settings: 1 h
# Cytochrome P450 1A2 = target: T1, Cytochrome P450 1A2 (Homo sapiens, UniProt P05177); test: Inhibition of CYP1A2 in human liver microsomes assessed as phenacetin O-deethylation after 4 to 40 mins in presence of NADPH by LCMS analysis; type: ADME
# T1 sequence (P05177 whole entry): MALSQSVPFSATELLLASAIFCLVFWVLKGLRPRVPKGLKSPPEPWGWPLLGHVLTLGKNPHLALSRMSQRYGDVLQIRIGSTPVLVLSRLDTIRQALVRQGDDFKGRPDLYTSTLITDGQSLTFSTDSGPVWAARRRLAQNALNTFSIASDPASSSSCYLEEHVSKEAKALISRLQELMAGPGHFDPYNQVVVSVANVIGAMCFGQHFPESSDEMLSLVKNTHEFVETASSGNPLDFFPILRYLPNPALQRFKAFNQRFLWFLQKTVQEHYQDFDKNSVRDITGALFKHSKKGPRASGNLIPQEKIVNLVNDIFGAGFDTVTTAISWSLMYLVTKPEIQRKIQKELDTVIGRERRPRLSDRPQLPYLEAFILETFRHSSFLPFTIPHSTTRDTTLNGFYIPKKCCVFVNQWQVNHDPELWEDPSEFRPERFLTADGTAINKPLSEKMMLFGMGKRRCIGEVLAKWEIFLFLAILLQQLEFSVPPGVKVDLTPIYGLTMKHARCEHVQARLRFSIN
# [20] = Drug metabolism in mouse liver microsomes assessed as metabolite M+32 (IV) formation at 5 uM after 60 mins by UPLC-MS analysis; type: ADME, microsome; settings: 1 h
# [21] = Drug metabolism in rat liver microsomes assessed as deaminated morpholine acid metabolite formation at 5 uM after 60 mins by UPLC-MS analysis; type: ADME, microsome; settings: 1 h
# Mus musculus [22] = test: Dose normalized AUC (0 to t) in humanized NOD.Cg-Prkdcscid Il2rgtm1Wjl/SzJ mouse infected with Plasmodium falciparum Pf3D70087/N9 at 30 mg/kg, po administered as single dose by LC-MS/MS analysis; type: ADME, organism-based; settings: in vivo
# [23] = AUC (0 to t) in humanized NOD.Cg-Prkdcscid Il2rgtm1Wjl/SzJ mouse infected with Plasmodium falciparum Pf3D70087/N9 at 50 mg/kg, po administered as single dose by LC-MS/MS analysis; type: ADME, organism-based; settings: in vivo
# [24] = Drug metabolism in human liver microsomes assessed as deaminated morpholine metabolite formation at 5 uM after 60 mins by UPLC-MS analysis; type: ADME, microsome; settings: 1 h
# [25] = Intrinsic clearance in human liver microsomes assessed per mg protein at 5 uM by UPLC-MS analysis; type: ADME, microsome; settings: read-out: CLH
# [26] = Drug metabolism in rat liver microsomes assessed as metabolite 4-(4-(morpholinomethyl)phenyl)cyclohexanol formation at 5 uM after 60 mins by UPLC-MS analysis; type: ADME, microsome; settings: 1 h
# Mus musculus [27] = test: Dose normalized AUC (0 to t) in humanized NOD.Cg-Prkdcscid Il2rgtm1Wjl/SzJ mouse infected with Plasmodium falciparum Pf3D70087/N9 at 100 mg/kg, po administered as single dose by LC-MS/MS analysis; type: ADME, organism-based; settings: in vivo
# [28] = Drug metabolism in mouse liver microsomes at 5 uM after 60 mins by UPLC-MS analysis; type: ADME, microsome; settings: read-out: Drug metabolism
# [29] = Drug metabolism in mouse liver microsomes assessed as deaminated morpholine metabolite formation at 5 uM after 60 mins by UPLC-MS analysis; type: ADME, microsome; settings: 1 h
# Sequence of Cytochrome P450 2C19 (P33261 whole entry): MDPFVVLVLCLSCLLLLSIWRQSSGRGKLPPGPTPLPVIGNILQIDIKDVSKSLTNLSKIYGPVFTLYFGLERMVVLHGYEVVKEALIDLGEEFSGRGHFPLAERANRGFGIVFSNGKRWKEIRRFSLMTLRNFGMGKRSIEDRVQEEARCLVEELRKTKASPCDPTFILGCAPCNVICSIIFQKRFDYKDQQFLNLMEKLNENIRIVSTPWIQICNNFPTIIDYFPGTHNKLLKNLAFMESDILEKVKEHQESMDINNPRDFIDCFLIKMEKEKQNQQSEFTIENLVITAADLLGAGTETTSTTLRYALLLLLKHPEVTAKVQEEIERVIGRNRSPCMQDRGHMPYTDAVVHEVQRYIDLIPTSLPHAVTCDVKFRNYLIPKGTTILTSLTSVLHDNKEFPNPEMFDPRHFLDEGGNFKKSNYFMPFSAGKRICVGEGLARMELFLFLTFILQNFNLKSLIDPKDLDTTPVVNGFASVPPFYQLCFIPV
compound,measurement,setting,value
c1cc(C2CCC3(CC2)OOC2(OO3)C3CC4CC(C3)CC2C4)ccc1CN1CCOCC1 (configuration not stated),Retention_time,[1],3.68 min
same,Tmax,[2],30 min
same,Drug metabolism,[3],Metabolite_Notdetected
same,microsomal CLint at 5 µM,[4],20 µL/min/mg
same,Drug metabolism,[5],Metabolite_Detected
same,Tmax,[6],60 min
same,Drug metabolism,[7],Metabolite_Notdetected
same,Drug metabolism,[8],Metabolite_Notdetected
same,AUC(0-t),[9],749 ng·h/mL
same,half-life at 5 µM,[10],43 min
same,AUCt/dose,Mus musculus [11],0.0599 µg·h/mL/mg/kg
same,Drug metabolism,[12],Metabolite_Notdetected
same,Cmax/dose,Mus musculus [13],0.0099 µg/mL/mg/kg
same,AUCt/dose,Mus musculus [14],0.0499 µg·h/mL/mg/kg
same,half-life at 1 µM,[15],15 min
same,Drug metabolism,[16],Metabolite_Notdetected
same,IC50,Cytochrome P450 2C19,> 20 µM
same,bioavailability,[17],52%
same,Drug metabolism,[18],Metabolite_Notdetected
same,MSD,Plasmodium berghei,26.3 days
same,Drug metabolism,[19],Metabolite_Notdetected
same,IC50,Cytochrome P450 1A2,> 20 µM
same,Drug metabolism,[20],Metabolite_Detected
same,Drug metabolism,[21],Metabolite_Notdetected
same,AUCt/dose,Mus musculus [22],0.0313 µg·h/mL/mg/kg
same,AUC(0-t),[23],3000 ng·h/mL
same,Drug metabolism,[24],Metabolite_Notdetected
same,microsomal CLint at 5 µM,[25],41 µL/min/mg
same,Drug metabolism,[26],Metabolite_Detected
same,AUCt/dose,Mus musculus [27],0.0232 µg·h/mL/mg/kg
same,"metabolised at 1 h, 5 µM",[28],39%
same,Drug metabolism,[29],Metabolite_Notdetected
